System: NCI-H460
Assay: Cytotoxicity against human H460 cells
Type: functional, cell-based

Structure (SMILES)	IC50
CC1=C2[C@]3(O)C(=O)OC(C)(C)[C@]2(C[C@@H]1O)[C@@H](OC(=O)c1ccccc1)[C@@H]1[C@]2(O)CO[C@@H]2C[C@H](O)[C@]13C	103 µM
CC(=O)O[C@@]12CO[C@@H]1C[C@H](O)[C@]1(C)[C@@H]2[C@H](OC(=O)c2ccccc2)[C@]23C[C@H](O)C(C)=C2[C@@]1(O)C(=O)OC3(C)C [WALLIFOLIOL]	68 µM
